≈ marks a conversion by molar mass, not a printed value. Where two headings read alike, the source gives them in different places.
Legend:
Format in all cases: cell-based
[1] = tested on: Fusobacterium nucleatum JCM 6328; assay: MIC by agar plate dilution method, Fn-1; conditions: for MIC: Fusobacterium nucleatum, read-out: MIC Fn-1 (paradentosis-related bacteria)
Description: (§1) The minimum inhibitory activities of the antimicrobial flavors of the invention on anaerobic oral bacteria were measured by an agar plate dilution method.
(§2) All the test strains were obtained from Riken (The Institute of Physical and Chemical Research). The names and abbreviations of the strains are shown in Table 1 below (The abbreviations are used in the following description).
(§3) Each test microorganism kept frozen (−80° C.) in glycerol at a concentration of 25% was thawed. A 100 μl portion of the suspension was inoculated into 10 ml of a liquid medium. A Gifu university anaerobic medium (GAM) (Nissui Pharmaceutical Co., Ltd) having added thereto Hemin (Tokyo Kasei) and Menadione (Sigma) was used for Su-1 and Fn-1. Schaedler Broth (BBL) having added thereto Hemin and Menadione was used for the other strains. The culture was anaerobically incubated at 37° C. for 72 hours by using BBL Gas Pack Anaerobic System. After the cultivation, the microbial cell suspension of Su-1 was 10-fold diluted to prepare an inoculum. The cultures of Fn-1 and Pg-1 were used as such as an inoculum. The cultures of Pt-1, Aa-1, and Av-1 were subjected to centrifugation, and the separated microbial cells were suspended in 2 ml of sterilized physiological saline to prepare the respective inoculums.
(§4) An agar medium prepared by adding 2% agar (Difco), Hemin, and Menadione to Trypticase Soy Broth (BBL) was used. A test sample (antimicrobial flavor) was dissolved in ethanol to prepare 2-fold serial dilutions. To 10 ml of the agar medium was added 100 μl of each dilution and stirred well. The agar medium was transferred to a petri dish (diameter: 9 cm) and solidified at room temperature. The solidified agar medium was inoculated with 5 μl of the inoculum by means of a multipoint inoculator (Microplanter MIT-P27, supplied by Sakuma Seisakusho), followed by culturing at 37° C. for 72 hours under anaerobic conditions. The growth of the test microorganism was compared with a blank petri dish (the agar medium to which 100 μl of ethanol had been added). The lowest sample concentration that inhibited growth was taken as MIC (ppm).
(§5) Antimicrobial activities (MIC; ppm) of the aromahygiene base (AHB) prepared in (1) and the antimicrobial flavor compositions prepared in (2) (Examples 2-1 to 2-3) and Comparative Examples 2-1 to 2-3 were measured in the same manner as in Example 1 (2).

[2] = tested on: Porphyromonas gingivalis JCM 8525; assay: MIC by agar plate dilution method, Pg-1; conditions: for MIC: Porphyromonas gingivalis, read-out: MIC Pg-1 (paradentosis-related bacteria; head Fg-1 in Tables 2 and 3)
Description: as §1, §2, §3, §4, §5

[3] = tested on: Actinomyces viscosus JCM 8352; assay: MIC by agar plate dilution method, Av-1; conditions: for MIC: Actinomyces viscosus, read-out: MIC Av-1 (caries-related bacteria)
Description: as §1, §2, §3, §4, §5

[4] = tested on: Streptococcus mutans JCM 5175; assay: MIC by agar plate dilution method, Su-1; conditions: for MIC: Streptococcus mutans, read-out: MIC Su-1 (caries-related bacteria)
Description: as §1, §2, §3, §4, §5

[5] = tested on: Actinomyces naeslundii JCM 8350; assay: MIC by agar plate dilution method, Aa-1; conditions: for MIC: Actinomyces naeslundii, read-out: MIC Aa-1 (caries-related bacteria)
Description: as §1, §2, §3, §4, §5

[6] = tested on: Prevotella intermedia JCM 6322; assay: MIC by agar plate dilution method, Pt-1; conditions: for MIC: Prevotella intermedia, read-out: MIC Pt-1 (paradentosis-related bacteria)
Description: as §1, §2, §3, §4, §5

[7] = agar medium, 37° C., 72 hours, anaerobic conditions
[8] = JCM6328, agar medium, 37° C., 72 hours, anaerobic conditions
[9] = JCM8525, agar medium, 37° C., 72 hours, anaerobic conditions
[10] = JCM8352, agar medium, 37° C., 72 hours, anaerobic conditions
[11] = JCM5175, agar medium, 37° C., 72 hours, anaerobic conditions
[12] = JCM6322, agar medium, 37° C., 72 hours, anaerobic conditions
[13] = JCM8350, agar medium, 37° C., 72 hours, anaerobic conditions

Molecule | MIC Fn-1 (paradentosis-related bacteria) [1, 7] | MIC Pg-1 (paradentosis-related bacteria; head Fg-1 in Tables 2 and 3) [2, 7] | MIC Av-1 (caries-related bacteria) [3, 7] | MIC Su-1 (caries-related bacteria) [4, 7] | MIC Aa-1 (caries-related bacteria) [5, 7] | MIC [1, 8] | MIC [2, 9] | MIC [3, 10] | MIC [4, 11] | MIC [5, 13] | MIC Pt-1 (paradentosis-related bacteria) [6, 7] | other results
CC(=O)C1=C(C)[C@@H]2C[C@@]3(C1)[C@H](C)CC[C@H]3C2(C)C [Acetyl cedrene] | 500 ppm | 15.6 ppm | 31.3 ppm | 250 ppm | 31.3 ppm |  |  |  |  |  |  | 
C=CCCCCCCCCO [9-decen-1-ol] |  |  |  |  |  | 250 µg/mL (≈ 1600 µM) | 125 µg/mL (≈ 800 µM) | 250 µg/mL (≈ 1600 µM) | 1000 µg/mL (≈ 6400 µM) | 250 µg/mL (≈ 1600 µM) |  | MIC [6, 12]: 62.5 µg/mL (≈ 400 µM)
CCCCCCCCC(C)C=O (stereo not shown) [2-Methyl decanal] |  |  |  |  |  | 500 µg/mL (≈ 2940 µM) | 62.5 µg/mL (≈ 367 µM) | 500 µg/mL (≈ 2940 µM) | 500 µg/mL (≈ 2940 µM) | 250 µg/mL (≈ 1470 µM) |  | MIC [6, 12]: 125 µg/mL (≈ 734 µM)
CC1=CCC(CCC(C)C(C)O)C1(C)C (stereo not shown) [Sandalore] | 125 ppm | 31.3 ppm | 125 ppm | 250 ppm | 125 ppm |  |  |  |  |  | 31.3 ppm | 
CCC(O)/C(C)=C/C1(C)CC2C=CC1C2 (stereo not shown) [Methyl sandeflor] | 250 ppm | 62.5 ppm | 125 ppm | 500 ppm | 250 ppm |  |  |  |  |  | 62.5 ppm | 
CC(=O)c1cc2c(cc1C)C(C)(C)C(C)CC2(C)C (stereo not shown) [Tonalid] |  |  |  |  |  |  |  |  |  |  |  | MIC ([1]; JCM6328, 72 h): > 1000 µg/mL; MIC ([2]; JCM8525, 72 h): 15.6 µg/mL (≈ 60.4 µM); MIC ([3]; JCM8352, 72 h): > 1000 µg/mL; MIC ([4]; JCM5175, 72 h): > 1000 µg/mL; MIC ([6]; JCM6322, 72 h): 62.5 µg/mL (≈ 242 µM); MIC ([5]; JCM8350, 72 h): > 1000 µg/mL
CCCCCCCCCCCC=O [Dodecanal] |  |  |  |  |  | 125 µg/mL (≈ 678 µM) | 62.5 µg/mL (≈ 339 µM) | 500 µg/mL (≈ 2710 µM) | 500 µg/mL (≈ 2710 µM) | 500 µg/mL (≈ 2710 µM) |  | MIC [6, 12]: 62.5 µg/mL (≈ 339 µM)
COC(=O)c1c(C)cc(O)c(C)c1O [Methyl atrarate] | 125 ppm | 31.3 ppm | 62.5 ppm | >1000 ppm | 62.5 ppm |  |  |  |  |  | 62.5 ppm | 
CC(=O)c1cc2c(cc1C)C(C)(C)C(C)C2(C)C (stereo not shown) [Phantolid] | >1000 ppm | 31.3 ppm | >1000 ppm | >1000 ppm | >1000 ppm |  |  |  |  |  | 62.5 ppm | 
CC1=CCC(CCC(C)CO)C1(C)C (stereo not shown) [Brahmanol] | 250 ppm | 31.3 ppm | 125 ppm | 250 ppm | 125 ppm |  |  |  |  |  | 31.3 ppm | 
CC1C(C)(C)C2=C(C(=O)CCC2)C1(C)C (stereo not shown) [Cashmerane] | >1000 ppm | 250 ppm | 1000 ppm | >1000 ppm | 1000 ppm |  |  |  |  |  | 250 ppm | 
CCCCCCCCCC(C)C=O (stereo not shown) [2-Methyl undecanal] |  |  |  |  |  | 125 µg/mL (≈ 678 µM) | 62.5 µg/mL (≈ 339 µM) | 125 µg/mL (≈ 678 µM) | 250 µg/mL (≈ 1360 µM) | 125 µg/mL (≈ 678 µM) |  | MIC [6, 12]: 62.5 µg/mL (≈ 339 µM)
Isocamphylcyclohexanol | 31.3 ppm | 3.9 ppm | 31.3 ppm | 31.3 ppm | 31.3 ppm |  |  |  |  |  | 3.9 ppm | 
CC/C(=C\CC1CC=C(C)C1(C)C)CO (stereo not shown) [Bacdanol] | 62.5 ppm | 31.3 ppm | 62.5 ppm | 125 ppm | 125 ppm |  |  |  |  |  |  | 
CC(=O)O[C@]1(C)CC[C@@]23C[C@@H]1C(C)(C)[C@@H]2CC[C@H]3C [Cedryl acetate] |  |  |  |  |  |  |  |  |  |  |  | MIC ([1]; JCM6328, 72 h): > 1000 µg/mL; MIC ([2]; JCM8525, 72 h): 31.3 µg/mL; MIC ([3]; JCM8352, 72 h): > 1000 µg/mL; MIC ([4]; JCM5175, 72 h): > 1000 µg/mL; MIC ([6]; JCM6322, 72 h): 62.5 µg/mL; MIC ([5]; JCM8350, 72 h): > 1000 µg/mL
CC1=CCC(C/C=C(\C)CO)C1(C)C (stereo not shown) [Santalinol] | 125 ppm | 15.6 ppm | 62.5 ppm | 250 ppm | 62.5 ppm |  |  |  |  |  | 31.3 ppm | 
CC(C)Cc1ccc2ncccc2c1 [Isobutyl quinoline] | 1000 ppm | 62.5 ppm | 250 ppm | 1000 ppm | 250 ppm |  |  |  |  |  | 250 ppm | 
C[C@@H]1CC[C@H]2C(C)(C)[C@H]3C[C@@]12CC[C@@]3(C)O [Cedrol] |  |  |  |  |  | > 1000 µg/mL | 31.3 µg/mL (≈ 141 µM) | > 1000 µg/mL | > 1000 µg/mL | > 1000 µg/mL |  | MIC [6, 12]: 31.3 µg/mL (≈ 141 µM)
COC(/C=C/c1ccccc1)OC [Cinnamic aldehyde dimethyl acetal] | 500 ppm | <15.6 ppm | 250 ppm | 250 ppm | 125 ppm |  |  |  |  |  | 62.5 ppm | 
C=C(C)[C@@H]1CC=C(CO)CC1 [Perilla alcohol] |  |  |  |  |  | 500 µg/mL (≈ 3280 µM) | 125 µg/mL (≈ 821 µM) | 500 µg/mL (≈ 3280 µM) | 500 µg/mL (≈ 3280 µM) | 250 µg/mL (≈ 1640 µM) |  | 
O=CCc1ccccc1 [Phenylacetaldehyde] |  |  |  |  |  | 1000 µg/mL (≈ 8320 µM) |  | 250 µg/mL (≈ 2080 µM) | > 1000 µg/mL | 500 µg/mL (≈ 4160 µM) |  | MIC ([2]; JCM8525, 72 h): 15.6 µg/mL (≈ 130 µM); MIC [6, 12]: 15.6 µg/mL (≈ 130 µM)
CC1(C)CCC[C@]2(C)[C@H]3CCO[C@]3(C)CC[C@@H]12 [Ambroxan] | >1000 ppm | 31.3 ppm | >1000 ppm | >1000 ppm | >1000 ppm |  |  |  |  |  | 31.3 ppm | 
O=C1CCCCCCCCCCCCCC1 [Cyclopentadecanone] |  |  |  |  |  |  |  |  |  |  |  | MIC ([1]; JCM6328, 72 h): > 1000 µg/mL; MIC ([2]; JCM8525, 72 h): < 62.5 µg/mL; MIC ([3]; JCM8352, 72 h): > 1000 µg/mL; MIC ([4]; JCM5175, 72 h): > 1000 µg/mL; MIC ([6]; JCM6322, 72 h): < 62.5 µg/mL; MIC ([5]; JCM8350, 72 h): > 1000 µg/mL
C=C(C)[C@@H]1CCC2=CC(=O)C[C@@H](C)[C@]2(C)C1 [Nootkatone] |  |  |  |  |  | 500 µg/mL (≈ 2290 µM) | 7.8 µg/mL (≈ 35.7 µM) | 62.5 µg/mL (≈ 286 µM) | 1000 µg/mL (≈ 4580 µM) | 62.5 µg/mL (≈ 286 µM) |  | 
CC1CCC(C(C)C)C(OCC(O)CO)C1 (stereo not shown) [3-Menthoxypropane-1,2-diol] |  |  |  |  |  | 1000 µg/mL (≈ 4340 µM) | 250 µg/mL (≈ 1090 µM) | 62.5 µg/mL (≈ 271 µM) | 1000 µg/mL (≈ 4340 µM) | 500 µg/mL (≈ 2170 µM) |  | 
CCCCCCCCCCC=O [Undecanal] |  |  |  |  |  | 500 µg/mL (≈ 2940 µM) | 125 µg/mL (≈ 734 µM) | 500 µg/mL (≈ 2940 µM) | 1000 µg/mL (≈ 5870 µM) | 500 µg/mL (≈ 2940 µM) |  | 
CCCCCCCC/C=C/C=O [Trans-2-undecenal] |  |  |  |  |  | 1000 µg/mL (≈ 5940 µM) |  | 125 µg/mL (≈ 743 µM) | 250 µg/mL (≈ 1490 µM) | 125 µg/mL (≈ 743 µM) |  | 

From patent US20080125496A1, “ANTIMICROBIAL FLAVOR AND ORAL CARE COMPOSITION CONTAINING THE SAME” (TAKASAGO INTERNATIONAL CORPORATION, priority 2001, published 2008)
